# Data: patent publication US7875647B2, “Heteroaryl-pyrazole derivatives as cannabinoid CB1 receptor antagonists” (Green Cross Corporation, priority 2006, dated 2011)
# Molecular target: T1, Cannabinoid-1 receptor (CB1R) (Rattus norvegicus, UniProt P20272)
# T1 construct: The tissue obtained from the brain of SD rats was homogenized; from tissue; host or cells: brain of SD rats (membrane pellet of the homogenate)
# Assay: Cannabinoid-1 receptor (CB1R) binding affinity assay ([3H]CP-55940, rat CB-1 receptor binding protocol)
# Settings: IC50(nM), brain tissue of SD rats, [3H]CP-55940, 30° C. 60 min
# Method: The tissue obtained from the brain of SD rats was homogenized with a Dounce homogenate system in TME (50 mM Tris, 3 mM MgCl2 and 1 mM EDTA, pH 7.4) at 4° C., and the homogenate was centrifuged at 48,000 g for 30 min. at 4° C. The pellet was resuspended in 5 ml of TME and the suspension was divided into aliquots and stored at −70° C. until its use in the following assay.
# The tissue concentrations were determined by Bradford protein analysis, and 148 μl of brain tissue of the required concentration was added to the plate. The plate was covered and placed in a 30° C. incubator for 60 min, and then transformed on GF/B filtermat pretreated in polyethylenimine (PEI) using a cell harvester. Each filter was washed five times and dried at 60° C. for 1 hr. Then, the degree of radioactivity retained by the filter was measured using Wallac Microbeta™ (PerkinElmer Life Sciences, Inc., Massachusetts, U.S.A.) and the activity of the compound for inhibiting CB1 receptor was determined therefrom.
# T1 sequence (P20272 whole entry): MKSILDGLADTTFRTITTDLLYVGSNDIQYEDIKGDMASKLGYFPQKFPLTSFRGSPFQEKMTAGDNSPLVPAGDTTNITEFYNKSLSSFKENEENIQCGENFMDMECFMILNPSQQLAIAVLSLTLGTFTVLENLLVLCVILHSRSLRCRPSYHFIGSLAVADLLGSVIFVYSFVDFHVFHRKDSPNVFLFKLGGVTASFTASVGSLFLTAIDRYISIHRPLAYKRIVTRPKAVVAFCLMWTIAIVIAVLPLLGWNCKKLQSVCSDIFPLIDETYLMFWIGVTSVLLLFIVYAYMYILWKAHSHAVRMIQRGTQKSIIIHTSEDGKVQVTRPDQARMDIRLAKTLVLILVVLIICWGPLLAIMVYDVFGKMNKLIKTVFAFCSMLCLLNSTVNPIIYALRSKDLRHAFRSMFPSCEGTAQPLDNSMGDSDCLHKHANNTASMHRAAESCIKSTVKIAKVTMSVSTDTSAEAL
row,Structure (SMILES),IC50 [nM]
1,"CCc1c(-c2nnc(C3(c4ccccc4)CC3)o2)nn(-c2ccc(Cl)cc2Cl)c1-c1ccc(Br)cc1 [Example 177, 2-(5-(4-bromophenyl)-1-(2,4-dichlorophenyl)-4-ethyl-1H-pyrazol-3-yl)-5-(1-phenylcyclopropyl)-1,3,4-oxadiazole]",3.01
2,"CC(=O)OCc1c(-c2nnc(C3(c4ccc(Cl)cc4)CC3)o2)nn(-c2ccc(Cl)cc2Cl)c1-c1ccc(Cl)cc1 [Example 197, (5-(4-chlorophenyl)-3-(5-(1-(4-chlorophenyl)cyclopropyl)-1,3,4-oxadiazol-2-yl)-1-(2,4-dichlorophenyl)-1H-pyrazol-4-yl)methyl acetate]",7.07

# Same assay, conditions: brain tissue of SD rats, [3H]CP-55940, 30° C. 60 min; read-out: IC50
row,Structure (SMILES),IC50 [nM]
1,"CCc1c(-c2nnc(C3(c4ccc(C)cc4)CC3)o2)nn(-c2ccc(Cl)cc2Cl)c1-c1ccc(Cl)cc1 [Example 151, 2-(5-(4-chlorophenyl)-1-(2,4-dichlorophenyl)-4-ethyl-1H-pyrazol-3-yl)-5-(1-p-tolylcyclopropyl)-1,3,4-oxadiazole]",7.05
2,"CCc1c(-c2nnc(C3(c4ccc(Cl)cc4)CCC3)o2)nn(-c2ccc(Cl)cc2Cl)c1-c1ccc(Cl)cc1 [Example 154, 2-(5-(4-chlorophenyl)-1-(2,4-dichlorophenyl)-4-ethyl-1H-pyrazol-3-yl)-5-(1-(4-chlorophenyl)cyclobutyl)-1,3,4-oxadiazole]",7.42
3,"Cc1c(-c2nnc(C3(c4ccc(Cl)cc4)CCC3)o2)nn(-c2ccccc2Br)c1-c1ccc(Cl)cc1 [Example 159, 2-(1-(2-bromophenyl)-5-(4-chlorophenyl)-4-methyl-1H-pyrazol-3-yl)-5-(1-(4-chlorophenyl)cyclobutyl)-1,3,4-oxadiazole]",7.51
4,"Cc1c(-c2nnc(C3(c4ccc(Cl)cc4)CC3)o2)nn(-c2c(Cl)cccc2Cl)c1-c1ccc(Cl)cc1 [Example 161, 2-(5-(4-chlorophenyl)-1-(2,6-dichlorophenyl)-4-methyl-1H-pyrazol-3-yl)-5-(1-(4-chlorophenyl)cyclopropyl)-1,3,4-oxadiazole]",52.6
5,"Cc1c(-c2nnc(C3(c4ccc(Cl)cc4)CC3)o2)nn(-c2cc(Cl)ccc2Cl)c1-c1ccc(Cl)cc1 [Example 167, 2-(5-(4-chlorophenyl)-1-(2,5-dichlorophenyl)-4-methyl-1H-pyrazol-3-yl)-5-(1-(4-chlorophenyl)cyclopropyl)-1,3,4-oxadiazole]",41.9
6,"COc1ccc(-c2c(C)c(-c3nnc(C4(c5ccc(OC)cc5)CC4)o3)nn2-c2ccc(Cl)cc2Cl)cc1 [Example 172, 2-(1-(2,4-dichlorophenyl)-5-(4-methoxyphenyl)-4-methyl-1H-pyrazol-3-yl)-5-(1-(4-methoxyphenyl)cyclopropyl)-1,3,4-oxadiazole]",17.9
7,"CCc1c(-c2nnc(C3(c4ccc(Cl)cc4Cl)CC3)o2)nn(-c2ccc(Cl)cc2Cl)c1-c1ccc(Br)cc1 [Example 174, 2-(5-(4-bromophenyl)-1-(2,4-dichlorophenyl)-4-ethyl-1H-pyrazol-3-yl)-5-(1-(2,4-dichlorophenyl)cyclopropyl)-1,3,4-oxadiazole]",6.97
8,"CCc1c(-c2nnc(C3(c4ccc(OC)cc4)CC3)o2)nn(-c2ccc(Cl)cc2Cl)c1-c1ccc(Br)cc1 [Example 175, 2-(5-(4-bromophenyl)-1-(2,4-dichlorophenyl)-4-ethyl-1H-pyrazol-3-yl)-5-(1-(4-methoxyphenyl)cyclopropyl)-1,3,4-oxadiazole]",5.71
9,"CC(C)c1c(-c2nnc(C3(c4ccc(Cl)cc4)CCC3)o2)nn(-c2ccc(Cl)cc2Cl)c1-c1ccc(Cl)cc1 [Example 182, 2-(5-(4-chlorophenyl)-1-(2,4-dichlorophenyl)-4-isopropyl-1H-pyrazol-3-yl)-5-(1-(4-chlorophenyl)cyclobutyl)-1,3,4-oxadiazole]",22.5
10,"CCCc1c(-c2nnc(C3(c4ccc(Cl)cc4)CC3)o2)nn(-c2ccc(Cl)cc2Cl)c1-c1ccc(Cl)cc1 [Example 186, 2-(5-(4-chlorophenyl)-1-(2,4-dichlorophenyl)-4-propyl-1H-pyrazol-3-yl)-5-(1-(4-chlorophenyl)cyclopropyl)-1,3,4-oxadiazole]",12.1
11,"CCCc1c(-c2nnc(C3(c4ccc(Cl)cc4)CCC3)o2)nn(-c2ccc(Cl)cc2Cl)c1-c1ccc(Cl)cc1 [Example 187, 2-(5-(4-chlorophenyl)-1-(2,4-dichlorophenyl)-4-propyl-1H-pyrazol-3-yl)-5-(1-(4-chlorophenyl)cyclobutyl)-1,3,4-oxadiazole]",11.1
12,"CC(C)c1c(-c2nnc(C3(C(F)(F)F)CC3)o2)nn(-c2ccc(Cl)cc2Cl)c1-c1ccc(Cl)cc1 [Example 190, 2-(5-(4-chlorophenyl)-1-(2,4-dichlorophenyl)-4-isopropyl-1H-pyrazol-3-yl)-5-(1-(trifluoromethyl)cyclopropyl)-1,3,4-oxadiazole]",15
13,"CC(=O)OCc1c(-c2nnc(C(C)(C)C)o2)nn(-c2ccc(Cl)cc2Cl)c1-c1ccc(Br)cc1 [Example 195, (5-(4-bromophenyl)-3-(5-tert-butyl-1,3,4-oxadiazol-2-yl)-1-(2,4-dichlorophenyl)-1H-pyrazol-4-yl)methyl acetate]",12.1
14,"CC(C)(C)c1nnc(-c2nn(-c3ccc(Cl)cc3Cl)c(-c3ccc(Br)cc3)c2CO)o1 [Example 200, (5-(4-bromophenyl)-3-(5-tert-butyl-1,3,4-oxadiazol-2-yl)-1-(2,4-dichlorophenyl)-1H-pyrazol-4-yl)methanol]",6.35
15,"OCc1c(-c2nnc(C3(c4ccc(Cl)cc4)CC3)o2)nn(-c2ccc(Cl)cc2Cl)c1-c1ccc(Cl)cc1 [Example 201, (5-(4-chlorophenyl)-3-(5-(1-(4-chlorophenyl)cyclopropyl)-1,3,4-oxadiazol-2-yl)-1-(2,4-dichlorophenyl)-1H-pyrazol-4-yl)methanol]",4.02

# The remaining lines, values ahead:
row,IC50 [nM],Structure (SMILES)
1,5.62,"CCc1c(-c2nnc(C3(c4ccc(OC)cc4)CC3)o2)nn(-c2ccc(Cl)cc2Cl)c1-c1ccc(Cl)cc1 [Example 152, 2-(5-(4-chlorophenyl)-1-(2,4-dichlorophenyl)-4-ethyl-1H-pyrazol-3-yl)-5-(1-(4-methoxyphenyl)cyclopropyl)-1,3,4-oxadiazole]"
2,5.83,"CCc1c(-c2nnc(C3(c4ccc(Cl)cc4Cl)CC3)o2)nn(-c2ccc(Cl)cc2Cl)c1-c1ccc(Cl)cc1 [Example 153, 2-(5-(4-chlorophenyl)-1-(2,4-dichlorophenyl)-4-ethyl-1H-pyrazol-3-yl)-5-(1-(2,4-dichlorophenyl)cyclopropyl)-1,3,4-oxadiazole]"
3,59.2,"Cc1c(-c2nnc(C3(c4ccc(Cl)cc4)CCC3)o2)nn(-c2c(Cl)cccc2Cl)c1-c1ccc(Cl)cc1 [Example 162, 2-(5-(4-chlorophenyl)-1-(2,6-dichlorophenyl)-4-methyl-1H-pyrazol-3-yl)-5-(1-(4-chlorophenyl)cyclobutyl)-1,3,4-oxadiazole]"
4,200,"Cc1c(-c2nnc(C3(c4ccc(Cl)cc4)CCC3)o2)nn(-c2cc(Cl)ccc2Cl)c1-c1ccc(Cl)cc1 [Example 168, 2-(5-(4-chlorophenyl)-1-(2,5-dichlorophenyl)-4-methyl-1H-pyrazol-3-yl)-5-(1-(4-chlorophenyl)cyclobutyl)-1,3,4-oxadiazole]"
5,4.47,"CCc1c(-c2nnc(C3(c4ccc(C)cc4)CC3)o2)nn(-c2ccc(Cl)cc2Cl)c1-c1ccc(Br)cc1 [Example 176, 2-(5-(4-bromophenyl)-1-(2,4-dichlorophenyl)-4-ethyl-1H-pyrazol-3-yl)-5-(1-p-tolylcyclopropyl)-1,3,4-oxadiazole]"
6,9.72,"CC(C)c1c(-c2nnc(C3(c4ccc(Cl)cc4)CC3)o2)nn(-c2ccc(Cl)cc2Cl)c1-c1ccc(Cl)cc1 [Example 181, 2-(5-(4-chlorophenyl)-1-(2,4-dichlorophenyl)-4-isopropyl-1H-pyrazol-3-yl)-5-(1-(4-chlorophenyl)cyclopropyl)-1,3,4-oxadiazole]"
7,15.5,"CCc1c(-c2nnc(C3(c4ccccc4)CCCC3)o2)nn(-c2ccc(Cl)cc2Cl)c1-c1ccc(Br)cc1 [Example 188, 2-(5-(4-bromophenyl)-1-(2,4-dichlorophenyl)-4-ethyl-1H-pyrazol-3-yl)-5-(1-phenylcyclopentyl)-1,3,4-oxadiazole]"
8,15,"CCCc1c(-c2nnc(C3(C(F)(F)F)CC3)o2)nn(-c2ccc(Cl)cc2Cl)c1-c1ccc(Cl)cc1 [Example 191, 2-(5-(4-chlorophenyl)-1-(2,4-dichlorophenyl)-4-propyl-1H-pyrazol-3-yl)-5-(1-(trifluoromethyl)cyclopropyl)-1,3,4-oxadiazole]"
9,22.4,"CC(=O)OCc1c(-c2nnc(C(C)(C)C)o2)nn(-c2ccc(Cl)cc2Cl)c1-c1ccc(Cl)cc1 [Example 196, (3-(5-tert-butyl-1,3,4-oxadiazol-2-yl)-5-(4-chlorophenyl)-1-(2,4-dichlorophenyl)-1H-pyrazol-4-yl)methyl acetate]"
10,68.8,"CC(C)(C)c1nnc(-c2nn(-c3ccc(Cl)cc3Cl)c(-c3ccc(Cl)cc3)c2COC(=O)c2ccccc2)o1 [Example 198, (3-(5-tert-butyl-1,3,4-oxadiazol-2-yl)-5-(4-chlorophenyl)-1-(2,4-dichlorophenyl)-1H-pyrazol-4-yl)methyl benzoate]"
11,36.2,"CC(C)(C)c1nnc(-c2nn(-c3ccc(Cl)cc3Cl)c(-c3ccc(Cl)cc3)c2C=O)o1 [Example 202, 3-(5-tert-butyl-1,3,4-oxadiazol-2-yl)-5-(4-chlorophenyl)-1-(2,4-dichlorophenyl)-1H-pyrazole-4-carbaldehyde]"
